Test results: PMC9861092, “Napyradiomycin A4 and Its Relate Compounds, a New Anti-PRV Agent and Their Antibacterial Activities, from Streptomyces kebangsaanensis WS-68302” (Molecules, 2023)
≈ marks a conversion by molar mass, not a printed value. Entries after “also recorded” stand apart in the source; their conditions may differ. Counter-ions that a name gives are not always drawn.

Assays:
Streptococcus suis SC19 = test: microbe, parasite or virus in culture; format: cell-based; conditions: for MIC: Streptococcus suis, SC19, read-out: MIC S. suis
[1] = test system: Erysipelothrix rhusiopathiae WH13013; test: microbe, parasite or virus in culture; format: cell-based; conditions: for MIC: Erysipelothrix rhusiopathiae, WH13013, read-out: MIC E. rhusiopathiae
PRV (Pseudorabies virus) [2] = test system: PRV (Pseudorabies virus)
in vitro = conditions: African green monkey
PRV (Pseudorabies virus) [3] = test: microbe, parasite or virus in culture; conditions: Suid alphaherpesvirus 1, MARC145, 72 h, read-out: IC50 against PRV
PRV protein = format: cell-based, Pseudorabies virus
[4] = test system: Staphylococcus aureus ATCC 25923; test: microbe, parasite or virus in culture; format: cell-based; conditions: for MIC: Staphylococcus aureus, ATCC25923, read-out: MIC S. aureus
[5] = test system: Escherichia coli ATCC 25922; format: cell-based
[6] = test system: Bacillus subtilis ATCC6633; conditions: cited from earlier work

Compound	MIC (Streptococcus suis SC19) [µg/mL]	MIC E. rhusiopathiae [1]	MIC [1] [µg/mL]	TI (therapeutic index = CC50/IC50) (PRV (Pseudorabies virus) [2])	CC50 (in vitro) [µM]	IC50 (PRV (Pseudorabies virus) [3]) [µM]	Suppression of PRV protein (green fluorescence intensity) in indirect immunofluorescence assay (PRV protein)	MIC S. aureus [4]	MIC [4] [µg/mL]	IC50 against PRV (PRV (Pseudorabies virus) [2])	MIC S. suis (Streptococcus suis SC19)	MIC E. coli [5] [µg/mL]	MIC against Bacillus subtilis ATCC6633 [6] [µg/mL]
CC(C)=CCC/C(C)=C/C[C@@]12O[C@]1(CC=C(C)C)C(=O)c1c(O)cc(O)cc1C2=O [Compound 5, A80915G]	25 (≈ 60.9 µM)	25 µg/mL (≈ 60.9 µM)	25 to 50 (≈ 60.9 to 122 µM)	2.05	16.7 ± 1.12	8.26 ± 0.902	–	–	–	–	–	–	–
C=C1CC[C@H](Cl)C(C)(C)C1C[C@@]12OC(C)(C)[C@H](Cl)C[C@]1(Cl)C(=O)c1c(O)cc(O)cc1C2=O (stereo partly shown) [Compound 4, napyradiomycin B1]	6.25 (≈ 12.1 µM)	50 µg/mL (≈ 96.9 µM)	25 to 50 (≈ 48.5 to 96.9 µM)	–	19.6 ± 2.82	13.3 ± 1.11	significantly suppressed	potent activities	< 0.78	–	–	–	–
CC(C)=CCC/C(C)=C/C[C@@]12OC(C)(C)[C@H](Cl)C[C@]1(Cl)C(=O)c1c(O)cc(O)cc1C2=O [Compound 3, napyradiomycin A1]	3.12 (≈ 6.49 µM)	50 µg/mL (≈ 104 µM)	25 to 50 (≈ 51.9 to 104 µM)	2.62	5.79 ± 0.708	2.21 ± 0.375	significantly suppressed	potent activities	< 0.78	–	–	–	–
NC(=O)c1ncn([C@@H]2O[C@H](CO)[C@@H](O)[C@H]2O)n1 [Ribavirin, reference compound]	–	–	–	>2.82	> 164	58	–	–	–	–	–	–	–
CC(C)=CCC/C(C)=C/C[C@]1(O)C(=O)c2cc(O)cc(O)c2C(=O)[C@@]1(Cl)CC=C(C)C [Compound 7, naphthomevalin]	20 (≈ 44.7 µM)	–	40 (≈ 89.5 µM)	–	> 0.045	> 90	–	potent activities	< 0.625	did not display any apparent anti-PRV activity	–	–	–
CC(C)=CCC12OC1(CC=C(C)C(O)CC=C(C)CO)C(=O)c1cc(O)cc(O)c1C2=O (stereo not shown) [Compound 2, A80915H]	–	did not show any activity and -	–	–	> 90	> 90	–	did not show any activity and -	–	did not display any apparent anti-PRV activity	did not show any activity and -	–	–
CC(=CCC12OC(C)(C)C(Cl)CC1(Cl)C(=O)c1c(O)cc(O)cc1C2=O)CCC(=O)C(C)C (stereo not shown) [Compound 1, napyradiomycin A4]	100 (≈ 201 µM)	50 µg/mL (≈ 101 µM)	25 to 50 (≈ 50.3 to 101 µM)	14.98	30.8 ± 5.57	2.06 ± 0.343	strongest inhibition; also recorded: significantly suppressed	–	25 (≈ 50.3 µM)	–	weak activity	–	–
CO/N=C(\C(=O)N[C@@H]1C(=O)N2C(C(=O)[O-])=C(C[n+]3cccc4c3CCC4)CS[C@H]12)c1csc(N)n1.O=S(=O)(O)O [Cefpirome Sulfate, cefpirome sulfate, reference compound]	–	<0.78 µg/mL	–	–	–	–	–	<0.78 µg/mL	–	–	<0.78 µg/mL	25	–
CC(C)=CC[C@]12O[C@@]1(C/C=C(\C)CC/C=C(\C)C(=O)O)C(=O)c1cc(O)cc(O)c1C2=O [Compound 6, A80915G-8″-acid]	50 (≈ 114 µM)	25 µg/mL (≈ 56.8 µM)	25 to 50 (≈ 56.8 to 114 µM)	–	46.3 ± 7.36	26.5 ± 5	–	–	50 (≈ 114 µM)	–	–	–	64 (≈ 145 µM)
CC1(C)S[C@@H]2[C@H](NC(=O)Cc3ccccc3)C(=O)N2[C@H]1C(=O)O [Penicillin G, Penicillin G sodium salt, reference compound]	12.5	–	50	–	–	–	–	–	–	–	–	–	–
